Test results reported in US9447114B2, “Thieno- and furo[2,3-d]pyrimidine-2,4[1H,3H]-dione derivatives” (Hydra Biosciences, Inc., priority 2014, dated 2016).

Key:
[1] = molecular target: T1, TRPC5 channel (Homo sapiens (Human), UniProt Q9UL62); assay: High throughput screening assay: intracellular Ca2+ rise, Fluo4 cell-based fluorescence; conditions: HEK293/TREx cells inducibly expressing TRPC5, high-Ca2+ Ringer, 14 mM Ca2+ final, triplicate, 0.027-20 μM
Source text: The assay depended on detection of the rise in intracellular Ca2+ concentration ([Ca2+]i) following channel activation in cells inducibly expressing the TRPC5 channel. Ca2+ rise was quantified with the use of fluorescent Ca2+ indicators that were loaded into cells and thereafter indicated the [Ca2+]i Ca2+ influx followed activation of the TRPC5 channel. Compounds inhibiting the [Ca2+]i rise were considered hits for further investigation.
The commercially available HEK293/TREx line (Invitrogen) was stably transfected with a TRPC5 construct and screened by conventional calcium imaging to find clones with TRPC5 expression following stimulation with 1 μg/ml tetracycline. These cells were maintained in the growth medium recommended by the manufacturer supplemented with 100 μg/ml hygromycin to promote retention of the TRPC5 construct. After growing to near confluency, cells were plated at a density of ˜35,000 cells/well in 384 well CellBind plates (Corning) in the presence of 1 μg/ml tetracycline, and allowed to grow for 20-30 hrs. A nearly confluent monolayer resulted. Cells were then loaded with Ca2+ dye: Fura-2/AM or Fluo4/AM was added to the wells to a final concentration of 4 μM or 0.5 μM, respectively, and incubated for 80 min or 60 min, respectively, at room temperature. Supernatant was then removed from the cells by inverting plates with a sharp flick, and 25 μl Hank's Balanced Salt Solution (HBSS; 0.185 g/l D-glucose, 0.9767 g/l MgS04 (anhydrous), 0.4 g/l KCl, 0.06 g/l KH2PO4 (anhydrous), 0.35 g/l NaHCO3, 8.0 g/l NaCl, and 0.04788 g/l Na2HPO4 (anhydrous); pH 7.4) was then added to each well. Following ˜0.5 hour for recovery from loading, cells were assayed using the Hamamatsu FDSS 6000 system, which permitted illumination alternately at 340 nm and 380 nm for Fura-2 experiments, or at 485 nm for Fluo4 experiments. Frames were acquired at a rate of 0.2 Hz. During the assay, the plates were continuously vortexed, with pipette mixing of wells following addition of each reagent. For the screening assay, 26 μl of a diluted compound stock (at 50 μM) was added to each well for 2 minutes following the collection of a short (4 frame) baseline. 13 μl 62 mM high-Ca2+Ringer solution (4.17 ml of normal ringer (with 2 mM Ca2+) plus 5.83 ml of isotonic calcium ringer (105 mM Ca2+; in this ringer all sodium has been replaced with calcium)) was then added to each well, achieving a final concentration of 14 mM Ca2+ and 10 μM test compound. Data was collected for ˜3 minutes following addition of high Ca2+Ringer, where the fluorescent intensity (for Fluo4) and the F340/F380 ratio (for Fura-2) were proportional to the [Ca2+]i Negative controls consisted of HEK293/TREx TRPC5 cells exposed to high Ca2+ solution, but no compound. Positive control conditions consisted of addition of 2-APB, a promiscuous blocker of TRPC5 and other channels, to columns 23 and 24 of the plates, to a final concentration of 200 μM. These controls defined a screening window, and “hits” were defined as those compounds inhibiting the fluorescence response by at least 40%. IC50 values were determined for compounds defined as “hits.” The Fluo4 cell-based fluorescence assay was used to determine the intracellular Ca2+ concentration in the presence of varying drug concentration. Final concentrations of compounds tested were 20 μM, 6.667 μM, 2.222 μM, 0.741 μM, 0.247 μM, 0.082 μM, and 0.027 μM. Compounds were tested in triplicate at all concentrations. Standard software was used to fit IC50 curves.
Additionally or alternatively, efficacy can be represented as % inhibition in the presence (of a given concentration of compound) versus the absence of compound or in comparison to a control compound. For example, efficacy can be represented as % inhibition of ion flux in the presence versus the absence of compound.

[2] = molecular target: T1, TRPC5 channel; assay: Whole-cell patch clamp of TRPC5 current; assay type: cell-based; conditions: TRPC5-expressing HEK293 TREx cells, current activated by 80 μM LaCl3 and 1.4 μM free Ca2+ in pipette, IC50 estimated
Source text: Patch clamp experiments permit the detection of currents through the TRPC5 channel in the cell line described above. In normal whole-cell patch clamp recordings, a glass electrode is brought into contact with a single cell and a high-resistance (gigaohm) seal is established with the cell membrane. The membrane is then ruptured to achieve the whole-cell configuration, permitting control of the voltage of the cell membrane and measurement of currents flowing across the membrane using the amplifier attached to the electrode and resulting in the replacement of cytoplasm with the pipette solution. A perfusion system permits control of the extracellular solution, including the addition of blockers and activators of the current. The current can be activated by including 1.4 μM free Ca^2+ in the pipette (intracellular) solution, and 80 μM LaCl3 in the extracellular solution.
TRPC5 cells were induced 20-48 hours, removed from growth plates, and replated at low density (to attain good single-cell physical separation) on glass coverslips for measurement. In some cases, cells were grown in low density overnight on glass coverslips. Patch clamp recordings were made in the whole-cell mode with a holding potential of −40 mV. Every 5 seconds, a voltage ramp was applied from −120 to +100 mV, 400 ms in duration. Currents elicited were quantified at −80 mV and +80 mV. The internal solution consisted of 140 mM cesium aspartate, 10 mM HEDTA, 2 mM CaCl2, 2.27 mM MgCl2 and 10 mM HEPES, pH 7.2, with 1,400 nM calculated free Ca^2+. The external solution consisted of 150 mM NaCl, 4.5 mM KCl, 1 mM MgCl2, 2 mM CaCl2 10 mM HEPES, 10 mM glucose, 1 mM EGTA, pH 7.4. Upon addition of LaCl3, TRPC5 current was induced only in TRPC5-expressing cells and not in parental HEK293 TREx cells. Removal of the LaCl3 stimulus causes most of the current to go away. Potential blockers were tested for ability to block both inward and outward currents in the continued presence of LaCl3.
IC50 of a compound of Formula (I) was estimated by testing the compound at 5 μM and 500 nM. […] IC50 for a compound of Formula (I) between 500 nM and 5 μM was similarly estimated.

T1 sequence (Q9UL62 whole entry): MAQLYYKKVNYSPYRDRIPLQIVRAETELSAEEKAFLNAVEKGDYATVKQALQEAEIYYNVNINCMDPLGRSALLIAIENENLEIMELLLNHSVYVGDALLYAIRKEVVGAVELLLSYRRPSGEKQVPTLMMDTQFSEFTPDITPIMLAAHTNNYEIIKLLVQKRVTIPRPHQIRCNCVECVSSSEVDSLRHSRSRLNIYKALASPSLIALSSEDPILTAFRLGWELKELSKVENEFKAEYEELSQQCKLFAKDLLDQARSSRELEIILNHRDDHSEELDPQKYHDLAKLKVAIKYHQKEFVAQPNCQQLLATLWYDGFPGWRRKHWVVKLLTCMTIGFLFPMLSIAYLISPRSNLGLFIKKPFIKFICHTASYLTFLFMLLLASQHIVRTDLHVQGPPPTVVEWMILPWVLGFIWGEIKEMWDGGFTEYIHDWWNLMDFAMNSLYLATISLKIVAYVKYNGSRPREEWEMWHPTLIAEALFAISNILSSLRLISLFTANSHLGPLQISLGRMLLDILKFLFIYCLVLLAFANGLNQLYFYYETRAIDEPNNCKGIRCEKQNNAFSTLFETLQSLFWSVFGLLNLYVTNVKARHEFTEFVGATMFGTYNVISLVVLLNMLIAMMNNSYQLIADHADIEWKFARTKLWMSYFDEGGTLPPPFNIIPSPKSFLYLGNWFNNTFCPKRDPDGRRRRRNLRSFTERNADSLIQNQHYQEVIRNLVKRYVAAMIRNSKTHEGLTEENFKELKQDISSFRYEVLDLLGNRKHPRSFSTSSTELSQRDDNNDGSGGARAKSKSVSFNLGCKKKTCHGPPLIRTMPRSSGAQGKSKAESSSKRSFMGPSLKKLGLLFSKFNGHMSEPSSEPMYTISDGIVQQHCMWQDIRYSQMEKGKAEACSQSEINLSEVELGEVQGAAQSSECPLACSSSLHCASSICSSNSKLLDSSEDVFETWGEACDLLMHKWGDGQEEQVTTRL

| Compound | IC50 [1] [nM] | IC50 [2] [nM] |
| --- | --- | --- |
| Cc1c(-c2ccccc2OC(F)(F)F)sc2c1c(=O)n(CCCO)c(=O)n2C [Compound 13, 3-(3-hydroxypropyl)-1,5-dimethyl-6-(2-(trifluoromethoxy)phenyl)thieno[2,3-d]pyrimidine-2,4(1H,3H)-dione] | < 21 |  |
| Cc1c(-c2ccccc2Cl)sc2c1c(=O)n(CCCO)c(=O)n2C [Compound 16, 6-(2-chlorophenyl)-3-(3-hydroxypropyl)-1,5-dimethylthieno[2,3-d]pyrimidine-2,4(1H,3H)-dione] | 27 |  |
| Cn1c(=O)n(CCCO)c(=O)c2c(Cc3ccc(Cl)cc3)c(-c3ccc(Cl)cc3)sc21 [Compound 24, 5-(4-chlorobenzyl)-6-(4-chlorophenyl)-3-(3-hydroxypropyl)-1-methylthieno[2,3-d]pyrimidine-2,4(1H,3H)-dione] | 242 | 1.84 |
| Cn1c(=O)n(CCCO)c(=O)c2c(Cc3ccc(Cl)cc3)c(Oc3cccc(Cl)c3)sc21 [Compound 2, 5-(4-chlorobenzyl)-6-(3-chlorophenoxy)-3-(3-hydroxypropyl)-1-methylthieno[2,3-d]pyrimidine-2,4(1H,3H)-dione] | 117 | < 1 |
| Cc1c(-c2cccc(OC(F)(F)F)c2)sc2c1c(=O)n(CCCO)c(=O)n2C [Compound 14, 3-(3-hydroxypropyl)-1,5-dimethyl-6-(3-(trifluoromethoxy)phenyl)thieno[2,3-d]pyrimidine-2,4(1H,3H)-dione] | 82.2 |  |
| Cc1c(-c2ccc3ccccc3c2)sc2c1c(=O)n(CCCO)c(=O)n2C [Compound 7, 3-(3-hydroxypropyl)-1,5-dimethyl-6-(naphthalen-2-yl)thieno[2,3-d]pyrimidine-2,4(1H,3H)-dione] | 34.9 |  |
| Cc1c(-c2ccc(Cl)c(Cl)c2)sc2c1c(=O)n(CCCO)c(=O)n2C [Compound 5, 6-(3,4-dichlorophenyl)-3-(3-hydroxypropyl)-1,5-dimethylthieno[2,3-d]pyrimidine-2,4(1H,3H)-dione] | < 27 |  |
| Cc1c(-c2cncc(Cl)c2)sc2c1c(=O)n(CCCO)c(=O)n2C [Compound 8, 6-(5-chloropyridin-3-yl)-3-(3-hydroxypropyl)-1,5-dimethylthieno[2,3-d]pyrimidine-2,4(1H,3H)-dione] | 1700 |  |
| Cc1c(-c2cccc(Cl)c2)sc2c1c(=O)n(CCCO)c(=O)n2C [Compound 19, 6-(3-chlorophenyl)-3-(3-hydroxypropyl)-1,5-dimethylthieno[2,3-d]pyrimidine-2,4(1H,3H)-dione] | 226 |  |
| CC(C)CCc1c(-c2cccc(OC(F)(F)F)c2)sc2c1c(=O)n(CCCO)c(=O)n2C [Compound 3, 3-(3-hydroxypropyl)-5-isopentyl-1-methyl-6-(3-(trifluoromethoxy)phenyl)thieno[2,3-d]pyrimidine-2,4(1H,3H)-dione] | 340 |  |
| Cn1c(=O)n(CCCO)c(=O)c2c(C(O)c3ccc(Cl)cc3)c(-c3cccc(Cl)c3)sc21 (stereo not shown) [Compound 4, 6-(3-chlorophenyl)-5-((4-chlorophenyl) (hydroxy)methyl)-3-(3-hydroxypropyl)-1-methylthieno[2,3-d]pyrimidine-2,4(1H,3H)-dione] | 55 |  |
| Cn1c(=O)n(CCCO)c(=O)c2c(Cc3ccc(Cl)cc3)c(-c3cccc(Cl)c3)sc21 [Compound 23, 5-(4-chlorobenzyl)-6-(3-chlorophenyl)-3-(3-hydroxypropyl)-1-methylthieno[2,3-d]pyrimidine-2,4(1H,3H)-dione] | 27 |  |
| O=c1c2c(Cc3ccc(Cl)cc3)c(-c3cccc(Cl)c3)oc2n(CCCO)c(=O)n1CCCO [Compound 28, 5-(4-chlorobenzyl)-6-(3-chlorophenyl)-1,3-bis(3-hydroxypropyl)furo[2,3-d]pyrimidine-2,4(1H,3H)-dione] | 4330 |  |

Results, then the molecule that gave them:

| IC50 [1] [nM] | IC50 [2] [nM] | Compound |
| --- | --- | --- |
| 584 | < 1 | Cn1c(=O)n(CCCO)c(=O)c2c(Cc3ccc(Cl)cc3)c(Oc3cccc(OC(F)(F)F)c3)sc21 [Compound 1, 5-(4-chlorobenzyl)-3-(3-hydroxypropyl)-1-methyl-6-(3-(trifluoromethoxy)phenoxy)thieno[2,3-d]pyrimidine-2,4(1H,3H)-dione] |
| 1.91 | < 1 | Cn1c(=O)n(CCCO)c(=O)c2c(Cc3ccc(Cl)cc3)c(-c3cccc(OC(F)(F)F)c3)sc21 [Compound 26, 5-(4-chlorobenzyl)-3-(3-hydroxypropyl)-1-methyl-6-(3-(trifluoromethoxy)phenyl)thieno[2,3-d]pyrimidine-2,4(1H,3H)-dione] |
| 112 |  | Cc1c(-c2ccc(F)c(F)c2)sc2c1c(=O)n(CCCO)c(=O)n2C [Compound 15, 6-(3,4-difluorophenyl)-3-(3-hydroxypropyl)-1,5-dimethylthieno[2,3-d]pyrimidine-2,4(1H,3H)-dione] |
| 134 | < 1 | Cn1c(=O)n(CCCO)c(=O)c2c(Cc3ccc(Cl)cc3)c(-c3cccc(Cl)c3)oc21 [Compound 27, 5-(4-chlorobenzyl)-6-(3-chlorophenyl)-3-(3-hydroxypropyl)-1-methylfuro[2,3-d]pyrimidine-2,4(1H,3H)-dione] |
| 27 |  | Cc1c(-c2cccc(F)c2)sc2c1c(=O)n(CCCO)c(=O)n2C [Compound 18, 6-(3-fluorophenyl)-3-(3-hydroxypropyl)-1,5-dimethylthieno[2,3-d]pyrimidine-2,4(1H,3H)-dione] |
| 369 |  | CC(C)CC(O)c1c(-c2cccc(OC(F)(F)F)c2)sc2c1c(=O)n(CCCO)c(=O)n2C (stereo not shown) [Compound 22, 5-(1-hydroxy-3-methylbutyl)-3-(3-hydroxypropyl)-1-methyl-6-(3-(trifluoromethoxy)phenyl) thieno[2,3-d]pyrimidine-2,4(1H,3H)-dione] |
| < 27 |  | Cc1c(-c2ccc(F)c(C(F)(F)F)c2)sc2c1c(=O)n(CCCO)c(=O)n2C [Compound 6, 6-(4-fluoro-3-(trifluoromethyl)phenyl)-3-(3-hydroxypropyl)-1,5-dimethylthieno[2,3-d]pyrimidine-2,4(1H,3H)-dione] |
